Data set [1] relates to A549. Nature of the data set: Photodynamic antitumor activity against human A549 cells assessed as inhibition of cell growth incubated for 60 mins followed by compound washout and light irradiation measured after 72 hrs by MTT assay. Type of data set: functional, cell-based. Particulars: A549, light or radiation study.
For data set [2], the system named is U-87 MG. Nature of the data set: Photodynamic antitumor activity against human U87 cells assessed as inhibition of cell growth incubated for 60 mins followed by compound washout and light irradiation measured after 72 hrs by MTT assay. Type of data set: functional, cell-based, U-87MG ATCC. Particulars: light or radiation study. (Tetrazolium assays rely on reduction of a dye to a coloured formazan, in cell work by metabolically active cells.)

Data set [3] has as its target Carbonic anhydrase 9 (Homo sapiens) (UniProt Q16790). Kind of data set: Inhibition of carbonic anhydrase IX in human A549 cells assessed as downregulation of CAIX expression at 1 uM incubated for 60 mins followed by compound washout and 540 nm light irradiation measured after 15 mins by Western blotting analysis. Type of data set: cell-based.
For data set [4] the target is unchanged. Nature of the data set: Inhibition of carbonic anhydrase IX in human U87 cells assessed as downregulation of CAIX expression at 1 uM incubated for 60 mins followed by compound washout and 540 nm light irradiation measured after 15 mins by Western blotting analysis. Type of data set: cell-based.
Data set [5] has the same target. Kind of data set: Inhibition of carbonic anhydrase IX in human A549 cells assessed as downregulation of CAIX expression at 1 uM incubated for 60 mins by Western blotting analysis. The data set is classed as cell-based. On the technique in general: In western blotting, separated proteins are transferred to a membrane and probed.
For data set [6] the target is unchanged. Kind of data set: Inhibition of carbonic anhydrase IX in human U87 cells assessed as downregulation of CAIX expression at 1 uM incubated for 60 mins by Western blotting analysis. The data set is classed as cell-based.
For data set [7] the target is unchanged. Kind of data set: Inhibition of carbonic anhydrase IX in human U87 cells assessed as downregulation of CAIX expression at 1 uM incubated for 60 mins followed by compound washout and 540 nm light irradiation measured after 15 mins by Hoechst 33342 staining based immunostaining analysis. Type of data set: cell-based.
The target is the same in data set [8]. Nature of the data set: Inhibition of carbonic anhydrase IX in human U87 cells assessed as nuclear localization of CAIX at 1 uM incubated for 60 mins followed by compound washout and 540 nm light irradiation measured after 15 mins by Hoechst 33342 staining based immunostaining analysis. The data set is classed as cell-based.
Data set [9] deals with A549. Kind of data set: Photodynamic antitumor activity against human A549 cells assessed as inhibition of cell growth at 0.001 to 30 uM incubated for 60 mins followed by compound washout and light irradiation measured after 72 hrs by MTT assay. The data set is classed as functional, cell-based. Particulars: dose 0.001-30 µM.
In data set [10] the test system is U-87 MG. Kind of data set: Photodynamic antitumor activity against human U87 cells assessed as inhibition of cell growth at 0.001 to 30 uM incubated for 60 mins followed by compound washout and light irradiation measured after 72 hrs by MTT assay. The data set is classed as functional, cell-based. The conditions noted are these: U-87MG ATCC, dose 0.001-30 µM.
Data set [11] concerns A549. Kind of data set: Antitumor activity against human A549 cells assessed as inhibition of cell growth at 0.001 to 30 uM incubated for 60 mins by MTT assay. Type of data set: functional, cell-based. The conditions noted are these: dose 0.001-30 µM.
In data set [12] the test system is U-87 MG. Kind of data set: Antitumor activity against human U87 cells assessed as inhibition of cell growth at 0.001 to 30 uM incubated for 60 mins by MTT assay. The data set is classed as functional, cell-based. The conditions noted are these: U-87MG ATCC, dose 0.001-30 µM.
Data set [13] concerns U-87 MG. Nature of the data set: Photodynamic antitumor activity against human U87 cells assessed as inhibition of cell growth at 1 uM incubated for 60 mins followed by compound washout and addition of ROS scavenger NaN3 and light irradiation measured after 72 hrs by MTT assay. Type of data set: functional, cell-based. Particulars: U-87MG ATCC.
In data set [14] the test system is U-87 MG. Kind of data set: Photodynamic antitumor activity against human U87 cells assessed as inhibition of cell growth at 1 uM incubated for 60 mins followed by compound washout and addition of ROS scavenger NaP and light irradiation measured after 72 hrs by MTT assay. The data set is classed as functional, cell-based. Particulars: U-87MG ATCC.
The test system of data set [15] is U-87 MG. Kind of data set: Photodynamic antitumor activity against human U87 cells assessed as inhibition of cell growth at 1 uM incubated for 60 mins followed by compound washout and addition of ROS scavenger Tiron and light irradiation measured after 72 hrs by MTT assay. Type of data set: functional, cell-based. Particulars: U-87MG ATCC.
Data set [16] has as its system U-87 MG. Nature of the data set: Photodynamic antitumor activity against human U87 cells assessed as inhibition of cell growth at 1 uM incubated for 60 mins followed by compound washout and addition of ROS scavenger Trolox and light irradiation measured after 72 hrs by MTT assay. The conditions noted are these: U-87MG ATCC. Type of data set: functional, cell-based.

For data set [17], the system named is U-87 MG. Kind of data set: Photodynamic antitumor activity against human U87 cells assessed as inhibition of cell growth at 1 uM incubated for 60 mins followed by compound washout and addition of ROS scavenger D-mannitol and light irradiation measured after 72 hrs by MTT assay. Type of data set: functional, cell-based. The conditions noted are these: U-87MG ATCC.

Data set [18] deals with U-87 MG. Kind of data set: Photodynamic antitumor activity against human U87 cells assessed as inhibition of cell growth at 1 uM incubated for 60 mins followed by compound washout and addition of ROS scavenger NaN3 upto 30 uM and light irradiation measured after 72 hrs by MTT assay. Type of data set: functional, cell-based. The conditions noted are these: U-87MG ATCC.
In data set [19] the test system is U-87 MG. Kind of data set: Photodynamic antitumor activity against human U87 cells assessed as increase in ATP release incubated for 1 hr followed by compound washout and 540 nm light irradiation measured upto 10 mins by luciferase assay. The conditions noted are these: U-87MG ATCC. Type of data set: functional, cell-based.
The subject of data set [20] is 4T1. Nature of the data set: Photodynamic antitumor activity against mouse 4T1 cells implanted mouse model assessed as reduction in tumor growth at 5 mg/kg,TOP administration followed by light irradiation measured after 12 days. The data set is classed as functional, organism-based. The conditions noted are these: time 12.0 day.
Data set [21] concerns 4T1. Kind of data set: Photodynamic antitumor activity against mouse 4T1 cells implanted mouse model assessed as reduction in tumor growth at 5 mg/kg,TOP administration measured after 12 days. Particulars: time 12.0 day. The data set is classed as functional, organism-based.
In data set [22] the test system is 4T1. Nature of the data set: Photodynamic antitumor activity against mouse 4T1 cells implanted mouse model assessed as increase in tumor degeneration at 5 mg/kg,TOP administration followed by light irradiation measured after 12 days. The conditions noted are these: time 12.0 day. The data set is classed as functional, organism-based.
In data set [23] the test system is 4T1. Kind of data set: Photodynamic antitumor activity against mouse 4T1 cells implanted mouse model assessed as increase in tumor necrosis at 5 mg/kg,TOP administration followed by light irradiation measured after 12 days. Type of data set: functional, organism-based. Particulars: time 12.0 day.
Data set [24] is described as follows: Toxicity in mouse implanted with mouse 4T1 cells assessed as change in body weight at 5 mg/kg,TOP administration followed by light irradiation measured after 12 days. Type of data set: organism-based. The conditions noted are these: in vivo, topical_or_ocular, 288 h, time 12 day.
The nature of data set [25]: Toxicity in mouse implanted with mouse 4T1 cells assessed as change in body weight at 5 mg/kg,TOP administration measured after 12 days. The data set is classed as organism-based. The conditions noted are these: in vivo, topical_or_ocular, 288 h, time 12 day.

Molecules are shown by their SMILES. Calls of active or inactive are those of the source. The rule behind the calls is not given here.

For orientation: IC50 means the concentration at which inhibition is half-maximal.

As to `Cc1cc(C)n2c1C=C1C=CC(CCC(=O)NCCCCCCNC(=O)c3ccc(S(N)(=O)=O)cc3)=[N+]1[B-]2(F)F`, the IC50 turned out to be 21300 nM in data set [1] and 18900 nM in data set [2].

In the case of `Cc1c(I)c(C)n2c1C=C1C=C(I)C(CCC(=O)NCCCCCCNC(=O)c3ccc(S(N)(=O)=O)cc3)=[N+]1[B-]2(F)F`, the inhibition result in data set [3], in [4], in data set [7] and in data set [8] was “Active” each time. Besides, the inhibition entry in [5] and in data set [6] was “inactive” in each case. Also, the IC50 came out at 200 nM in [1] and 50 nM in data set [2]. The Activity entry is “Dose-Dependent Effect” in data set [9], “Dose-Dependent Effect” in data set [10], “Non-Toxic” in [24] and “Non-Toxic” in data set [25]. Further, the outcome in data set [11], in [12], in [13], in data set [18] and in [21] was inactive. Also, the result in data set [14], in data set [15], in data set [16], in data set [17], in data set [19] and in [20] was Active. Further, the outcome in [22] and in [23] was Active.

`Cc1c(Br)c(C)n2c1C=C1C=C(Br)C(CCC(=O)NCCCCCCNC(=O)c3ccc(S(N)(=O)=O)cc3)=[N+]1[B-]2(F)F`: the inhibition result in data set [3] and in [4] was “Active” each time. Besides, the inhibition result in data set [5] and in data set [6] was “inactive” each time. For the same compound, the 50% inhibitory concentration (IC50) in data set [1] was determined as 400 nM; in data set [2] it was 300 nM. Besides, the Activity entry in [9] and in data set [10] was “Dose-Dependent Effect” throughout. For the same compound, the result in data set [11] and in data set [12] was inactive.

Source of the values: ChEMBL document CHEMBL5576064, “Development of carbonic anhydrase IX-targeting molecular-targeted photodynamic therapy” (Bioorg Med Chem Lett, 2024).
